Experimental data taken from ChEMBL document CHEMBL1201862, “PubChem BioAssay data set” (2004).
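Briefly, cells in 96-well plates were exposed to five compound concentrations for 48 h, and endpoints were estimated by linear interpolation. Abbreviation: GI50, concentration required for 50% inhibition of growth.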 Active and inactive are the calls of the source. Rule as the data show it: active = GI50 up to about 1.1 µM and inactive = higher.

How the values were obtained:
Experiment in all cases: inhibition of tumour cell growth, NCI panel, 48 h
UACC-257 = system: UACC-257
OVCAR-5 = system: OVCAR-5
MDA-MB-435 = system: MDA-MB-435
Hs-578T = system: Hs-578T
SK-MEL-5 = system: SK-MEL-5
NCI-H226 = system: NCI-H226
OVCAR-8 = system: OVCAR-8
T47D = system: T47D
TK-10 = system: TK-10
HL-60 = system: HL-60
SF-539 = system: SF-539
RXF 393 = system: RXF 393
MCF7 = system: MCF7
SNB-75 = system: SNB-75
SNB-19 = system: SNB-19
SF-268 = system: SF-268
CAKI-1 = system: CAKI-1
SK-OV-3 = system: SK-OV-3
HCC 2998 = system: HCC 2998

Structure (SMILES): CN(CCC(=O)O)S(=O)(=O)c1ccccc1
- GI50 (UACC-257): > 100 µM (inactive)
- GI50 (OVCAR-5): > 100 µM (inactive)
- GI50 (MDA-MB-435): > 100 µM (inactive)
- GI50 (Hs-578T): > 100 µM (inactive)
- GI50 (SK-MEL-5): > 100 µM (inactive)
- GI50 (NCI-H226): > 100 µM (inactive)
- GI50 (OVCAR-8): > 100 µM (inactive)
- GI50 (T47D): > 100 µM (inactive)
- GI50 (TK-10): > 100 µM (inactive)
- GI50 (HL-60): > 100 µM (inactive)
- GI50 (SF-539): > 100 µM (inactive)
- GI50 (RXF 393): > 100 µM (inactive)
- GI50 (MCF7): > 100 µM (inactive)
- GI50 (SNB-75): 80.2 µM (inactive)
- GI50 (SNB-19): > 100 µM (inactive)
- GI50 (SF-268): > 100 µM (inactive)
- GI50 (CAKI-1): > 100 µM (inactive)
- GI50 (SK-OV-3): > 100 µM (inactive)

Structure (SMILES): CCCCN1CSC(=S)N(Cc2ccccc2)C1
- GI50 (UACC-257): 20.9 µM (inactive)
- GI50 (OVCAR-5): > 100 µM (inactive)
- GI50 (MDA-MB-435): 38.2 µM (inactive)
- GI50 (Hs-578T): > 70.3 µM (inactive)
- GI50 (SK-MEL-5): 23.4 µM (inactive)
- GI50 (NCI-H226): > 68.5 µM (inactive)
- GI50 (OVCAR-8): 66.4 µM (inactive)
- GI50 (T47D): 34.8 µM (inactive)
- GI50 (TK-10): 28.4 µM (inactive)
- GI50 (HL-60): 3.56 µM (inactive)
- GI50 (SF-539): > 100 µM (inactive)
- GI50 (RXF 393): 48 µM (inactive)
- GI50 (MCF7): 31.3 µM (inactive)
- GI50 (SNB-75): 33.7 µM (inactive)
- GI50 (SNB-19): 66.4 µM (inactive)
- GI50 (SF-268): 49.7 µM (inactive)
- GI50 (CAKI-1): > 100 µM (inactive)
- GI50 (SK-OV-3): > 100 µM (inactive)

Structure (SMILES): COc1cc(OC)c(OC)cc1/C=C1\C=Cc2ccccc21
- GI50 (UACC-257): 16.3 µM (inactive)
- GI50 (OVCAR-5): 12.5 µM (inactive)
- GI50 (MDA-MB-435): 5.32 µM (inactive)
- GI50 (Hs-578T): 22.9 µM (inactive)
- GI50 (SK-MEL-5): 11.1 µM (inactive)
- GI50 (NCI-H226): 26.9 µM (inactive)
- GI50 (OVCAR-8): 31.7 µM (inactive)
- GI50 (T47D): 7.89 µM (inactive)
- GI50 (TK-10): 17.3 µM (inactive)
- GI50 (HL-60): 5.82 µM (inactive)
- GI50 (SF-539): 15.2 µM (inactive)
- GI50 (RXF 393): 11.4 µM (inactive)
- GI50 (MCF7): 12.1 µM (inactive)
- GI50 (SNB-75): 2.04 µM (inactive)
- GI50 (SNB-19): > 10 µM (inactive)
- GI50 (HCC 2998): 13.5 µM (inactive)
- GI50 (SF-268): 17.1 µM (inactive)
- GI50 (SK-OV-3): 19.7 µM (inactive)

Structure (SMILES): CCOC(=O)c1nc2c(nc1C(=O)OCC)C(=O)c1ccccc1C2=O
- GI50 (UACC-257): 0.431 µM (active)
- GI50 (OVCAR-5): 0.562 µM (active)
- GI50 (MDA-MB-435): 0.246 µM (active)
- GI50 (Hs-578T): 0.236 µM (active)
- GI50 (SK-MEL-5): 0.407 µM (active)
- GI50 (NCI-H226): 0.569 µM (active)
- GI50 (OVCAR-8): 1.05 µM (active)
- GI50 (T47D): 3.85 µM (inactive)
- GI50 (TK-10): 2.75 µM (inactive)
- GI50 (HL-60): 0.427 µM (active)
- GI50 (SF-539): 0.473 µM (active)
- GI50 (RXF 393): 0.649 µM (active)
- GI50 (MCF7): 0.34 µM (active)
- GI50 (SNB-75): 0.479 µM (active)
- GI50 (SNB-19): 0.446 µM (active)
- GI50 (HCC 2998): 1.35 µM (inactive)
- GI50 (SF-268): 0.818 µM (active)
- GI50 (CAKI-1): 1 µM (active)
- GI50 (SK-OV-3): 1.59 µM (inactive)

Structure (SMILES): NC(=O)NNCc1ccccc1
- GI50 (UACC-257): > 100 µM (inactive)
- GI50 (OVCAR-5): > 100 µM (inactive)
- GI50 (MDA-MB-435): > 100 µM (inactive)
- GI50 (Hs-578T): > 100 µM (inactive)
- GI50 (SK-MEL-5): > 100 µM (inactive)
- GI50 (NCI-H226): > 100 µM (inactive)
- GI50 (OVCAR-8): > 100 µM (inactive)
- GI50 (T47D): > 100 µM (inactive)
- GI50 (TK-10): > 100 µM (inactive)
- GI50 (HL-60): > 100 µM (inactive)
- GI50 (SF-539): > 100 µM (inactive)
- GI50 (RXF 393): > 100 µM (inactive)
- GI50 (MCF7): > 100 µM (inactive)
- GI50 (SNB-19): > 100 µM (inactive)
- GI50 (HCC 2998): > 100 µM (inactive)
- GI50 (SF-268): > 100 µM (inactive)
- GI50 (CAKI-1): > 100 µM (inactive)
- GI50 (SK-OV-3): > 100 µM (inactive)

Structure (SMILES): CC(=O)CC1=C(OC(C)C)C2(OCCO2)C1O (configuration not stated)
- GI50 (UACC-257): > 100 µM (inactive)
- GI50 (OVCAR-5): > 100 µM (inactive)
- GI50 (MDA-MB-435): > 100 µM (inactive)
- GI50 (Hs-578T): > 100 µM (inactive)
- GI50 (SK-MEL-5): > 100 µM (inactive)
- GI50 (NCI-H226): > 100 µM (inactive)
- GI50 (OVCAR-8): > 100 µM (inactive)
- GI50 (T47D): > 100 µM (inactive)
- GI50 (TK-10): > 100 µM (inactive)
- GI50 (HL-60): > 100 µM (inactive)
- GI50 (SF-539): > 100 µM (inactive)
- GI50 (RXF 393): > 100 µM (inactive)
- GI50 (MCF7): > 100 µM (inactive)
- GI50 (SNB-75): > 100 µM (inactive)
- GI50 (SNB-19): > 100 µM (inactive)
- GI50 (SF-268): > 100 µM (inactive)
- GI50 (CAKI-1): > 100 µM (inactive)
- GI50 (SK-OV-3): > 100 µM (inactive)

Structure (SMILES): Cc1cc2cc3c(Cl)c(CCCl)c(C)nc3cc2c(Cl)c1CCCl
- GI50 (UACC-257): 18 µM (inactive)
- GI50 (MDA-MB-435): 15.6 µM (inactive)
- GI50 (Hs-578T): 9.84 µM (inactive)
- GI50 (SK-MEL-5): 12.6 µM (inactive)
- GI50 (NCI-H226): 3.73 µM (inactive)
- GI50 (OVCAR-8): 24.1 µM (inactive)
- GI50 (T47D): 15.8 µM (inactive)
- GI50 (TK-10): 23.6 µM (inactive)
- GI50 (HL-60): 11.5 µM (inactive)
- GI50 (SF-539): 12.1 µM (inactive)
- GI50 (RXF 393): 4.33 µM (inactive)
- GI50 (MCF7): 26.9 µM (inactive)
- GI50 (SNB-75): 17 µM (inactive)
- GI50 (SNB-19): 16.4 µM (inactive)
- GI50 (HCC 2998): 17.5 µM (inactive)
- GI50 (SF-268): 11.2 µM (inactive)

Structure (SMILES): COC(=O)Nc1nc2cc(NS(=O)(=O)c3ccc(Cl)cc3)ccc2[nH]1
- GI50 (OVCAR-5): 17.9 µM (inactive)
- GI50 (MDA-MB-435): 2.17 µM (inactive)
- GI50 (Hs-578T): 1.99 µM (inactive)
- GI50 (SK-MEL-5): 3.99 µM (inactive)
- GI50 (NCI-H226): 10.6 µM (inactive)
- GI50 (OVCAR-8): 13 µM (inactive)
- GI50 (T47D): 19.1 µM (inactive)
- GI50 (TK-10): 2.7 µM (inactive)
- GI50 (HL-60): 4.15 µM (inactive)
- GI50 (SF-539): 7.21 µM (inactive)
- GI50 (RXF 393): 7.23 µM (inactive)
- GI50 (MCF7): 4.08 µM (inactive)
- GI50 (SNB-75): 2.35 µM (inactive)
- GI50 (SNB-19): 4.33 µM (inactive)
- GI50 (SF-268): 10.4 µM (inactive)
- GI50 (CAKI-1): 3.78 µM (inactive)
- GI50 (SK-OV-3): 12.2 µM (inactive)
